In patent publication US12552783B2, “Modulators of proteolysis and associated methods of use” (Arvinas Operations, Inc., priority 2018, dated 2026):

Biological target: KRas (Homo sapiens, UniProt P01116, G12C)
Assay: KRas degradation in NCI-H2030 cells by Western blot, normalized to GAPDH (data of Table 14)
Format: cell-based
Set-up: host or cells: NCI-H2030
Settings: for Dmax: NCI-H2030
In short: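 Cells serum-starved 24 h, then treated at 0.3, 1 and 3 μM in 0.1% DMSO, 24 h for VHL-based compounds and 72 h for others. Lysates (10 μg protein) immunoblotted; KRas normalized to GAPDH, degradation visually estimated below 25% or quantified versus DMSO lane, giving DC50 and DMax.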

C=CC(=O)N1CCN(c2nc(O[C@H](C)CN3CCC(OCCOCCOCCOCCOCCOCC(=O)N[C@H](C(=O)N4C[C@H](O)C[C@H]4C(=O)N[C@@H](C)c4ccc(-c5scnc5C)cc4)C(C)(C)C)CC3)nc3c2CCN(c2cc(O)cc4ccccc24)C3)CC1 [compound 410, (2S,4R)-1-((S)-20-((1-((R)-2-((4-(4-acryloylpiperazin-1-yl)-7-(3-hydroxynaphthalen-1-yl)-5,6,7,8-tetrahydropyrido[3,4-d]pyrimidin-2-yl)oxy)propyl)piperidin-4-yl)oxy)-2-(tert-butyl)-4-oxo-6,9,12,15,18-pentaoxa-3-azaicosanoyl)-4-hydroxy-N-((S)-1-(4-(4-methylthiazol-5-yl)phenyl)ethyl)pyrrolidine-2-carboxamide]
Percent Degradation at Indicated Concentration (μM) (H2030 cells, 0.3 μM): C (Percent Degradation: C ≤ 35) | Percent Degradation at Indicated Concentration (μM) (H2030 cells, 1 μM): C (Percent Degradation: C ≤ 35) | Percent Degradation at Indicated Concentration (μM) (H2030 cells, 3 μM): C (Percent Degradation: C ≤ 35)

CCC(=O)N1CCN(c2nc(NCCC(=O)N(C)CCOCCOCCOCCOc3ccc4c(c3)C(=O)N(C3CCC(=O)NC3=O)C4=O)nc3c(F)c(-c4cc(O)cc5ccccc45)c(Cl)cc23)CC1 (centres unmarked) [compound 49, 3-((6-chloro-8-fluoro-7-(3-hydroxynaphthalen-1-yl)-4-(4-propionylpiperazin-1-yl)quinazolin-2-yl)amino)-N-(2-(2-(2-(2-((2-(2,6-dioxopiperidin-3-yl)-1,3-dioxoisoindolin-5-yl)oxy)ethoxy)ethoxy)ethoxy)ethyl)-N-methylpropanamide]
Percent Degradation at Indicated Concentration (μM): 0.3 (H2030 cells, 0.3 μM): C (C ≤ 35) | Percent Degradation at Indicated Concentration (μM): 1 (H2030 cells, 1 μM): C (C ≤ 35) | Percent Degradation at Indicated Concentration (μM): 3 (H2030 cells, 3 μM): C (C ≤ 35) | Dmax (H2030 cells): ≤ 35%

C=CC(=O)N1CCN(c2nc(NCCC(=O)N(C)CCOCCOCCOCCOc3ccc4c(c3)CN(C3CCC(=O)NC3=O)C4=O)nc3c(F)c(-c4cc(O)cc5ccccc45)c(Cl)cc23)CC1 (centres unmarked) [compound 67, 3-((4-(4-acryloylpiperazin-1-yl)-6-chloro-8-fluoro-7-(3-hydroxynaphthalen-1-yl)quinazolin-2-yl)amino)-N-(2-(2-(2-(2-((2-(2,6-dioxopiperidin-3-yl)-1-oxoisoindolin-5-yl)oxy)ethoxy)ethoxy)ethoxy)ethyl)-N-methylpropanamide]
Percent Degradation at Indicated Concentration (μM): 0.3 (H2030 cells, 0.3 μM): C (C ≤ 35) | Percent Degradation at Indicated Concentration (μM): 1 (H2030 cells, 1 μM): C (C ≤ 35) | Percent Degradation at Indicated Concentration (μM): 3 (H2030 cells, 3 μM): C (C ≤ 35) | Dmax (H2030 cells): ≤ 35%

C=CC(=O)N1CCN(c2nc(NCCC(=O)N(C)CCNc3cccc4c3C(=O)N(C3CCC(=O)NC3=O)C4=O)nc3c(F)c(-c4c(O)cccc4F)c(Cl)cc23)CC1 [compound 107, 3-(((S)-4-(4-acryloylpiperazin-1-yl)-6-chloro-8-fluoro-7-(2-fluoro-6-hydroxyphenyl)quinazolin-2-yl)amino)-N-(2-((2-(2,6-dioxopiperidin-3-yl)-1,3-dioxoisoindolin-4-yl)amino)ethyl)-N-methylpropanamide]
Percent Degradation at Indicated Concentration (μM) (H2030, 3 μM): C (Percent Degradation: C ≤ 35)

CN(CCOCCOc1ccc2c(c1)C(=O)N(C1CCC(=O)NC1=O)C2=O)C(=O)CCNc1nc(N2CCN(C(=O)C(O)O)CC2)c2cc(Cl)c(-c3c(O)cccc3F)c(F)c2n1 [compound 149, 3-(((S)-6-chloro-4-(4-(2,2-dihydroxyacetyl)piperazin-1-yl)-8-fluoro-7-(2-fluoro-6-hydroxyphenyl)quinazolin-2-yl)amino)-N-(2-(2-((2-(2,6-dioxopiperidin-3-yl)-1,3-dioxoisoindolin-5-yl)oxy)ethoxy)ethyl)-N-methylpropanamide]
Percent Degradation at Indicated Concentration (μM) (H2030 cells, 3 μM): C (Percent Degradation: C ≤ 35)

C=CC(=O)N1CCN(c2nc(NCCC(=O)N(C)CCOCCOCCOCCOCCOc3cc(-c4scnc4C)ccc3CNC(=O)[C@@H]3C[C@@H](O)CN3C(=O)[C@H](c3cc(C)no3)C(C)C)nc3c(F)c(-c4cc(O)cc5ccccc45)c(Cl)cc23)CC1 [compound 346, (2S,4R)-N-(2-((18-((4-(4-acryloylpiperazin-1-yl)-6-chloro-8-fluoro-7-(3-hydroxynaphthalen-1-yl)quinazolin-2-yl)amino)-15-methyl-16-oxo-3,6,9,12-tetraoxa-15-azaoctadecyl)oxy)-4-(4-methylthiazol-5-yl)benzyl)-4-hydroxy-1-((S)-3-methyl-2-(3-methylisoxazol-5-yl)butanoyl)pyrrolidine-2-carboxamide]
Percent Degradation at Indicated Concentration (μM) (H2030, 0.3 μM): C (Percent Degradation: C ≤ 35) | Percent Degradation at Indicated Concentration (μM) (H2030, 1 μM): C (Percent Degradation: C ≤ 35) | Percent Degradation at Indicated Concentration (μM) (H2030, 3 μM): C (Percent Degradation: C ≤ 35) | Dmax: ≤ 35%

C=CC(=O)N1CCN(c2nc(Nc3ccc(OCCOCCOCCOCCOCC(=O)N[C@H](C(=O)N4C[C@H](O)C[C@H]4C(=O)N[C@@H](C)c4ccc(-c5scnc5C)cc4)C(C)(C)C)cc3)nc3c(F)c(-c4cc(O)cc5ccccc45)c(Cl)cc23)CC1 [compound 484]
Percent Degradation at Indicated Concentration (μM) (H2030, 0.3 μM): C (Percent Degradation: C ≤ 35) | Percent Degradation at Indicated Concentration (μM) (H2030, 1 μM): C (Percent Degradation: C ≤ 35) | Percent Degradation at Indicated Concentration (μM) (H2030, 3 μM): C (Percent Degradation: C ≤ 35) | Dmax: ≤ 35%

C=CC(=O)N1CCN(c2nc(NCCC(=O)N(C)CCOCCOCCOCCOCCNc3cccc4c3C(=O)N(C3CCC(=O)NC3=O)C4=O)nc3c(F)c(-c4c(O)cccc4F)c(Cl)cc23)CC1 [compound 116, 3-(((R)-4-(4-acryloylpiperazin-1-yl)-6-chloro-8-fluoro-7-(2-fluoro-6-hydroxyphenyl)quinazolin-2-yl)amino)-N-(14-((2-(2,6-dioxopiperidin-3-yl)-1,3-dioxoisoindolin-4-yl)amino)-3,6,9,12-tetraoxatetradecyl)-N-methylpropanamide]
Percent Degradation at Indicated Concentration (μM) (H2030, 0.3 μM): C (Percent Degradation: C ≤ 35) | Percent Degradation at Indicated Concentration (μM) (H2030, 1 μM): C (Percent Degradation: C ≤ 35) | Percent Degradation at Indicated Concentration (μM) (H2030, 3 μM): C (Percent Degradation: C ≤ 35) | Dmax: ≤ 35%

C=CC(=O)N1CCN(c2nc(NCCC(=O)N(C)CCNc3cccc4c3C(=O)N(C3CCC(=O)NC3=O)C4=O)nc3c(F)c(-c4cc(O)cc5ccccc45)c(Cl)cc23)CC1 (centres unmarked) [compound 55, 3-((4-(4-acryloylpiperazin-1-yl)-6-chloro-8-fluoro-7-(3-hydroxynaphthalen-1-yl)quinazolin-2-yl)amino)-N-(2-((2-(2,6-dioxopiperidin-3-yl)-1,3-dioxoisoindolin-4-yl)amino)ethyl)-N-methylpropanamide]
Percent Degradation at Indicated Concentration (μM): 0.1 (H2030 cells, 0.1 μM): C (C ≤ 35) | Percent Degradation at Indicated Concentration (μM): 0.3 (H2030 cells, 0.3 μM): C (C ≤ 35) | Percent Degradation at Indicated Concentration (μM): 1 (H2030 cells, 1 μM): C (C ≤ 35) | Dmax (H2030 cells): ≤ 35%

C=CC(=O)N1CCN(c2nc(NCCC(=O)N(C)CCOCCOCCOc3ccc4c(c3)CN(C3CCC(=O)NC3=O)C4=O)nc3c(F)c(-c4cc(O)cc5ccccc45)c(Cl)cc23)CC1 (centres unmarked) [compound 66, 3-((4-(4-acryloylpiperazin-1-yl)-6-chloro-8-fluoro-7-(3-hydroxynaphthalen-1-yl)quinazolin-2-yl)amino)-N-(2-(2-(2-((2-(2,6-dioxopiperidin-3-yl)-1-oxoisoindolin-5-yl)oxy)ethoxy)ethoxy)ethyl)-N-methylpropanamide]
Percent Degradation at Indicated Concentration (μM): 0.3 (H2030 cells, 0.3 μM): C (C ≤ 35) | Percent Degradation at Indicated Concentration (μM): 1 (H2030 cells, 1 μM): C (C ≤ 35) | Percent Degradation at Indicated Concentration (μM): 3 (H2030 cells, 3 μM): C (C ≤ 35) | Dmax (H2030 cells): ≤ 35%

Cc1ncsc1-c1ccc([C@H](C)NC(=O)[C@@H]2C[C@@H](O)CN2C(=O)[C@@H](NC(=O)COCCOCCOCCOCCN(C)C(=O)CCNc2nc(N3CCN(C(=O)C(O)O)CC3)c3cc(Cl)c(-c4c(O)cccc4F)c(F)c3n2)C(C)(C)C)cc1 (atropisomer, axis not shown) [compound 240, (2S,4R)-1-((S)-2-(tert-butyl)-21-(((S)-6-chloro-4-(4-(2,2-dihydroxyacetyl)piperazin-1-yl)-8-fluoro-7-(2-fluoro-6-hydroxyphenyl)quinazolin-2-yl)amino)-18-methyl-4,19-dioxo-6,9,12,15-tetraoxa-3,18-diazahenicosanoyl)-4-hydroxy-N-((S)-1-(4-(4-methylthiazol-5-yl)phenyl)ethyl)pyrrolidine-2-carboxamide]
Percent Degradation at Indicated Concentration (μM) (H2030 cells, 0.3 μM): C (Percent Degradation: C ≤ 35) | Percent Degradation at Indicated Concentration (μM) (H2030 cells, 1 μM): C (Percent Degradation: C ≤ 35) | Percent Degradation at Indicated Concentration (μM) (H2030 cells, 3 μM): C (Percent Degradation: C ≤ 35)

CCC(=O)N1CCN(c2nc(NCCC(=O)N(C)CCOCCOCCOc3ccc4c(c3)CN(C3CCC(=O)NC3=O)C4=O)nc3c(F)c(-c4cc(O)cc5ccccc45)c(Cl)cc23)CC1 (centres unmarked) [compound 52, 3-((6-chloro-8-fluoro-7-(3-hydroxynaphthalen-1-yl)-4-(4-propionylpiperazin-1-yl)quinazolin-2-yl)amino)-N-(2-(2-(2-((2-(2,6-dioxopiperidin-3-yl)-1-oxoisoindolin-5-yl)oxy)ethoxy)ethoxy)ethyl)-N-methylpropanamide]
Percent Degradation at Indicated Concentration (μM): 0.3 (H2030 cells, 0.3 μM): C (C ≤ 35) | Percent Degradation at Indicated Concentration (μM): 1 (H2030 cells, 1 μM): C (C ≤ 35) | Percent Degradation at Indicated Concentration (μM): 3 (H2030 cells, 3 μM): C (C ≤ 35) | Dmax (H2030 cells): ≤ 35%

C=CC(=O)N1CCN(c2nc(NCCC(=O)N(C)CCOCCOCCOCCOc3ccc4c(c3)CN(C3CCC(=O)NC3=O)C4=O)nc3c(F)c(-c4c(O)cccc4F)c(Cl)cc23)CC1 [compound 93, 3-((4-(4-acryloylpiperazin-1-yl)-6-chloro-8-fluoro-7-((S)-2-fluoro-6-hydroxyphenyl)quinazolin-2-yl)amino)-N-(2-(2-(2-(2-((2-(2,6-dioxopiperidin-3-yl)-1-oxoisoindolin-5-yl)oxy)ethoxy)ethoxy)ethoxy)ethyl)-N-methylpropanamide]
Percent Degradation at Indicated Concentration (μM) (H2030, 0.3 μM): C (Percent Degradation: C ≤ 35) | Percent Degradation at Indicated Concentration (μM) (H2030, 1 μM): C (Percent Degradation: C ≤ 35) | Percent Degradation at Indicated Concentration (μM) (H2030, 3 μM): C (Percent Degradation: C ≤ 35) | Dmax: ≤ 35%
